From PubChem BioAssay (NCI)
Where “and” joins values, the source holds several entries; their conditions need not be identical. Identical values can stand only once.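 Test compounds were applied to cells in 96-well plates for 48 hours at 5 doses. Here, GI50 denotes the concentration required for 50% inhibition of growth. TGI denotes the concentration required for complete inhibition of growth.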

Tests used:
Assay in all cases: DTP human tumour cell line panel, 48 h
[1] = test system: HL-60(TB) leukemia
[2] = test system: IGROV1 ovarian
[3] = test system: NCI-H23 lung
[4] = test system: SK-MEL-5 melanoma
[5] = test system: SNB-19 CNS
[6] = test system: SNB-75 CNS
[7] = test system: SW-620 colon
[8] = test system: HCC-2998 colon
[9] = test system: MCF7 breast
[10] = test system: NCI/ADR-RES ovarian

SMILES	GI50 [1]	TGI [1]	GI50 [2]	TGI [2]	GI50 [3]	TGI [3]	GI50 [4]	TGI [4]	GI50 [5]	TGI [5]	GI50 [6]	TGI [6]	GI50 [7]	TGI [7]	TGI [8]	GI50 [8]	TGI [9]	TGI [10]	GI50 [10]	GI50 [9]
CC(=O)[CH-]C(=O)c1ccccc1.CC(=O)[CH-]C(=O)c1ccccc1.CCCCCCCCCCCCCCCCCC(=O)[O-].CCCCCCCCCCCCCCCCCC(=O)[O-].[Ti+4]	19.3 µM	43.9 µM	34.9 µM	> 100 µM	36.1 µM	> 100 µM	21 µM	48.2 µM	17.5 µM	33.6 µM	11.7 µM	25.5 µM	33.3 µM	> 100 µM						
CSC1=NC=CCN1C		> 100 µM		> 100 µM		> 100 µM		> 100 µM		> 100 µM		> 100 µM		> 100 µM	> 100 µM					
O=c1cc(-c2cccc(F)c2)[nH]c2cc3c(cc12)OCO3	0.201 µM			> 57 µM		2.43 µM and 2.83 µM	0.0639 µM		0.324 µM	75 µM and > 45.3 µM				> 100 µM	0.357 µM and 0.538 µM	0.152 µM	> 100 µM	0.0497 µM		
N#Cc1c(-c2cccs2)c2c(=S)[nH]c(=S)[nH]c2[nH]c1=S	15.4 µM	47.9 µM	71.3 µM	> 100 µM			17.2 µM	33.9 µM	75.7 µM	> 100 µM	> 100 µM	> 100 µM	32.8 µM	81 µM				99.3 µM	62 µM	
COc1cc2c(c3c1C=CCO3)C(=O)c1ccccc1C2=O		57.7 µM		78.5 µM		> 100 µM		78.6 µM		> 100 µM		> 100 µM		97.9 µM	> 100 µM					
CC(CO)(CO)N=Cc1cc(I)cc(I)c1O		29.6 µM		33.3 µM		58.7 µM		28.5 µM		48.9 µM		34.8 µM		53 µM			46.3 µM	63.2 µM		
COc1ccc2cc1Oc1ccc(cc1)C[C@H]1c3cc(c(OC)cc3CCN1C)Oc1c(OC)c(OC)cc3c1[C@H](C2)N(C)CC3		16.1 µM and 23.8 µM and > 100 µM	14.5 µM	19.6 µM and 27.8 µM and > 100 µM		20.5 µM and 27.4 µM and > 100 µM	3.94 µM	11.8 µM and 13.8 µM and > 100 µM	7.55 µM	13 µM and 20.1 µM and 60.6 µM	2.77 µM	13.4 µM and 10.3 µM and > 100 µM			8.65 µM		14 µM and 17.8 µM and > 100 µM			5.27 µM
O=C(/C=C/c1ccc(Cl)cc1)c1ccc(Cl)cc1Cl	7.25 µM	27.9 µM	0.987 µM	14.6 µM	4.55 µM	12.4 µM	4.89 µM	13.1 µM	13.3 µM	29.5 µM			1.88 µM	6.31 µM			23 µM	15.5 µM	0.331 µM	6.28 µM
FC(F)(F)c1nc(-c2ccccc2Cl)[nH]c1C(F)(F)F		1.22 µM		8.97 µM		2.03 µM		0.833 µM		8.27 µM		5 µM		6.63 µM						
O=[N+]([O-])[C@@H]1C2C=CC(C2)[C@H]1Cl (stereo partly specified)		> 100 µM		> 100 µM		> 100 µM		> 100 µM		> 100 µM		> 100 µM		> 100 µM						
O=C(c1ccc2ccccc2c1)c1c(C(F)(F)F)n([O-])c2cc(Cl)c(Cl)cc2[n+]1=O	1.81 µM	3.87 µM	1.3 µM	2.56 µM			1.6 µM	2.94 µM			1.48 µM	2.8 µM	1.63 µM	2.98 µM	2.8 µM	1.48 µM	3.41 µM	3.95 µM	1.8 µM	1.68 µM
CC(=O)c1ccc(Nc2cc(-c3ccccc3)nc3c(O)cccc23)cc1	3.13 µM	30.6 µM	2.57 µM	13.4 µM	12.5 µM	64.7 µM	13 µM	26.7 µM			17.9 µM	50.5 µM	7.06 µM	> 100 µM	36.7 µM	13.7 µM		34.9 µM	5.53 µM	
C[C@@H]1CC[C@H]2C(COCC3=C(C(F)(F)F)O[C@@H]4O[C@@]5(C)CC[C@H]6[C@H](C)CC[C@@H]3[C@@]46OO5)=C(C(F)(F)F)O[C@@H]3O[C@@]4(C)CC[C@@H]1[C@]32OO4	< 0.01 µM	> 100 µM		> 100 µM	< 0.01 µM	> 100 µM	0.0109 µM	> 100 µM					< 0.01 µM	> 100 µM			> 100 µM	> 100 µM	0.543 µM	< 0.01 µM
COC(=O)C1OC(O[C@H]2CCC3(C)C(CCC4(C)C3CC=C3C5CC(C)(C)CCC5(C(=O)O)CC[C@]34C)C2(C)C)C(O)C(OC2OC(CO)C(O)C(O)C2O)C1O (stereo partly specified)	6.92 µM	18.2 µM	20.1 µM	> 33.3 µM	6.46 µM	11.9 µM	6.14 µM	11.4 µM	6.82 µM	15.5 µM			7.28 µM	16.7 µM	12.4 µM	7.14 µM	26.4 µM	13.5 µM	7.24 µM	9.92 µM
O=C1/C(=C/c2ccc(F)cc2)CCOc2ccc([N+](=O)[O-])cc21			3.15 µM	10.8 µM	1.95 µM	4.51 µM	1.84 µM	3.6 µM	4.26 µM	16.2 µM			1.35 µM	4.04 µM	4.75 µM	2.04 µM	9.29 µM	4.99 µM	2.12 µM	2.91 µM
O=C(C#Cc1c[nH]c(=O)[nH]c1=O)c1ccccc1Cl		48.1 µM		35 µM		32.3 µM		28.8 µM		> 100 µM		39.6 µM		27.2 µM	30.8 µM					
CCOC(=O)C1(CC)CCCCC(=O)N1 (stereo unspecified)		> 100 µM		> 100 µM		> 100 µM								> 100 µM	> 100 µM					
COC(=O)C(c1[nH]nc2ccccc12)C(C(=O)OC)c1[nH]nc2ccccc12 (stereo unspecified)		50.5 µM		> 100 µM		> 100 µM				> 100 µM		> 100 µM		33.7 µM	> 100 µM					
